# Molecular target: T1, WT-EAAC1 (Oryctolagus cuniculus, UniProt P31597)
# T1 sequence (P31597 1-524): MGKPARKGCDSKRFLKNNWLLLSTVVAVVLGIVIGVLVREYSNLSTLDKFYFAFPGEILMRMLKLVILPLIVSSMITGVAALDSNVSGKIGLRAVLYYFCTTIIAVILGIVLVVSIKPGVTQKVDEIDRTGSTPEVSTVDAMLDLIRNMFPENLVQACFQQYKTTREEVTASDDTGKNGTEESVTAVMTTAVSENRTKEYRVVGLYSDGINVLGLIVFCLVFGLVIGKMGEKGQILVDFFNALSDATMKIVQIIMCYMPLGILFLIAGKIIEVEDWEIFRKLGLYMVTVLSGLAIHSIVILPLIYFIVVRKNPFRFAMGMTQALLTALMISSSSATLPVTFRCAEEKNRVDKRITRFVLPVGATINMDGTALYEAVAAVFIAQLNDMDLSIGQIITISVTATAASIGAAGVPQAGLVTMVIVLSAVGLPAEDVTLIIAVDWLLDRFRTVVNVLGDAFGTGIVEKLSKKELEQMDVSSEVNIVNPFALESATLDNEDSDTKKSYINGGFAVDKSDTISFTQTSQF
# Assay type: cell-based, rabbit
# Settings: WT-EAAC1 in HeLa cells; 5 mM unlabeled succinate
compound,measurement,value
"O=C(O)CCC(=O)O [Succinate, succinate]",Inhibition of D-[3H]-aspartate uptake,In contrast to WT

# Reference: paper PMC2151622 (The Journal of General Physiology, 2007)
